Assay results reported in patent US20220242870A1, “HETEROCYCLE-FUSED PYRIMIDINE DERIVATIVE AND USE THEREOF” (VORONOI Inc., priority 2019, published 2022).

Legend:
Assay in all cases: scanMAX kinase assay panel
Type in all cases: binding
Settings in all cases: read-out: control percentage (% control)
MUSK = biological target: T1, MUSK (Homo sapiens, UniProt O15146)
T1 construct: purchased DiscoverX scanMAX kinase assay panel
Method in brief: (§1)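 Compound was applied as a 1 μM solution in DMSO across the scanMAX kinase panel. Activity is reported as % control, scaled between a positive control (0%) and the DMSO negative control (100%).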

MARK3 = biological target: T2, MARK3 (Homo sapiens, UniProt P27448)
T2 construct: purchased DiscoverX scanMAX kinase assay panel
Method in brief: as §1

RET = biological target: T3, RET (Homo sapiens, UniProt P07949)
T3 construct: purchased DiscoverX scanMAX kinase assay panel
Method in brief: as §1

SRPK3 = biological target: T4, SRPK3 (Homo sapiens, UniProt Q9UPE1)
T4 construct: purchased DiscoverX
Method in brief: as §1

[1] = biological target: T5, JAK1(JH2domain-pseudokinase) (Homo sapiens, UniProt P23458)
T5 construct: JAK1(JH2domain-pseudokinase); purchased DiscoverX scanMAX kinase assay panel
Method in brief: as §1

MERTK = biological target: T6, MERTK (Homo sapiens, UniProt Q12866)
T6 construct: purchased DiscoverX scanMAX kinase assay panel
Method in brief: as §1

GRK4 = biological target: T7, GRK4 (Homo sapiens, UniProt P32298)
T7 construct: purchased DiscoverX scanMAX kinase assay panel
Method in brief: as §1

ARK5 = biological target: T8, ARK5 (Homo sapiens, UniProt O60285)
T8 construct: purchased DiscoverX (scanMAX panel, contract assay)
Method in brief: as §1

FLT3(N841I) = biological target: T9, FLT3(N841I) (Homo sapiens, UniProt P36888, N841I)
T9 construct: purchased DiscoverX scanMAX kinase assay panel
Method in brief: as §1

STK16 = biological target: T10, STK16 (Homo sapiens, UniProt O75716)
T10 construct: purchased DiscoverX
Method in brief: as §1

KIT(L576P) = biological target: T11, KIT(L576P) (Homo sapiens, UniProt P10721, L576P)
T11 construct: purchased DiscoverX scanMAX kinase assay panel
Method in brief: as §1

PIK4CB = biological target: T12, PIK4CB (Homo sapiens, UniProt Q9UBF8)
T12 construct: purchased DiscoverX scanMAX kinase assay panel
Method in brief: as §1

MAP4K3 = biological target: T13, MAP4K3 (Homo sapiens, UniProt Q8IVH8)
T13 construct: purchased DiscoverX scanMAX kinase assay panel
Method in brief: as §1

FGR = biological target: T14, FGR (Homo sapiens, UniProt P09769)
T14 construct: purchased DiscoverX scanMAX kinase assay panel
Method in brief: as §1

MET(M1250T) = biological target: T15, MET(M1250T) (Homo sapiens, UniProt P08581, M1250T)
T15 construct: purchased DiscoverX scanMAX kinase assay panel
Method in brief: as §1

TRKC = biological target: T16, TRKC (Homo sapiens, UniProt Q16288)
T16 construct: purchased DiscoverX
Method in brief: as §1

EGFR(L861Q) = biological target: T17, EGFR(L861Q) (Homo sapiens, UniProt P00533, L861Q)
T17 construct: purchased DiscoverX scanMAX kinase assay panel
Method in brief: as §1

CLK4 = biological target: T18, CLK4 (Homo sapiens, UniProt Q9HAZ1)
T18 construct: purchased DiscoverX (scanMAX panel, contract assay)
Method in brief: as §1

EGFR = biological target: T19, EGFR (Homo sapiens, UniProt P00533)
T19 construct: purchased DiscoverX scanMAX kinase assay panel
Method in brief: as §1

MARK4 = biological target: T20, MARK4 (Homo sapiens, UniProt Q96L34)
T20 construct: purchased DiscoverX scanMAX kinase assay panel
Method in brief: as §1

JNK1 = biological target: T21, JNK1 (Homo sapiens, UniProt P45983)
T21 construct: purchased DiscoverX scanMAX kinase assay panel
Method in brief: as §1

FLT3(D835Y) = biological target: T22, FLT3(D835Y) (Homo sapiens, UniProt P36888, D835Y)
T22 construct: purchased DiscoverX scanMAX kinase assay panel
Method in brief: as §1

PIP5K2C = biological target: T23, PIP5K2C (Homo sapiens, UniProt Q8TBX8)
T23 construct: purchased DiscoverX scanMAX kinase assay panel
Method in brief: as §1

DCAMKL3 = biological target: T24, DCAMKL3 (Homo sapiens, UniProt Q9C098)
T24 construct: purchased DiscoverX (scanMAX panel, contract assay)
Method in brief: as §1

FLT3 = biological target: T25, FLT3 (Homo sapiens, UniProt P36888)
T25 construct: purchased DiscoverX scanMAX kinase assay panel
Method in brief: as §1

MEK1 = biological target: T26, MEK1 (Homo sapiens, UniProt Q02750)
T26 construct: purchased DiscoverX scanMAX kinase assay panel
Method in brief: as §1

RIOK3 = biological target: T27, RIOK3 (Homo sapiens, UniProt O14730)
T27 construct: purchased DiscoverX scanMAX kinase assay panel
Method in brief: as §1

NEK10 = biological target: T28, NEK10 (Homo sapiens, UniProt Q6ZWH5)
T28 construct: purchased DiscoverX scanMAX kinase assay panel
Method in brief: as §1

CIT = biological target: T29, CIT (Homo sapiens, UniProt O14578)
T29 construct: purchased DiscoverX (scanMAX panel, contract assay)
Method in brief: as §1

[2] = biological target: T30, JAK2(JH1domain-catalytic) (Homo sapiens, UniProt O60674)
T30 construct: JAK2(JH1 domain-catalytic); purchased DiscoverX scanMAX kinase assay panel
Method in brief: as §1

FLT3(D835H) = biological target: T31, FLT3(D835H) (Homo sapiens, UniProt P36888, D835H)
T31 construct: purchased DiscoverX scanMAX kinase assay panel
Method in brief: as §1

MELK = biological target: T32, MELK (Homo sapiens, UniProt Q14680)
T32 construct: purchased DiscoverX scanMAX kinase assay panel
Method in brief: as §1

SLK = biological target: T33, SLK (Homo sapiens, UniProt Q9H2G2)
T33 construct: purchased DiscoverX
Method in brief: as §1

SRPK1 = biological target: T34, SRPK1 (Homo sapiens, UniProt Q96SB4)
T34 construct: purchased DiscoverX
Method in brief: as §1

EGFR(L858R) = biological target: T35, EGFR(L858R) (Homo sapiens, UniProt P00533, L858R)
T35 construct: purchased DiscoverX scanMAX kinase assay panel
Method in brief: as §1

T27 sequence (O14730 whole entry): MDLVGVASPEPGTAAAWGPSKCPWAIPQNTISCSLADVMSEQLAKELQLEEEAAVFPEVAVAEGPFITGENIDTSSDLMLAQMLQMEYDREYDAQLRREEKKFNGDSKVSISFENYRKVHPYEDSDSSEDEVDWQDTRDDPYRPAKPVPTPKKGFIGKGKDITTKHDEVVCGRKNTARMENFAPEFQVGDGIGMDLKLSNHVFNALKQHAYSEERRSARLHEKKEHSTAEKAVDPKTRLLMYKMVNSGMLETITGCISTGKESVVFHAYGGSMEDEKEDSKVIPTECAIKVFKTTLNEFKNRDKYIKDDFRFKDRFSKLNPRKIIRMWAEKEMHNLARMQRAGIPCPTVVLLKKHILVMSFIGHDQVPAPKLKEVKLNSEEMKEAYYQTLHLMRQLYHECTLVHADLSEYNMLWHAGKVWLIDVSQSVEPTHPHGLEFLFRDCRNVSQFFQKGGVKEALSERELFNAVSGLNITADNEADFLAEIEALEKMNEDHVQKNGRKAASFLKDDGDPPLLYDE
T12 sequence (Q9UBF8 whole entry): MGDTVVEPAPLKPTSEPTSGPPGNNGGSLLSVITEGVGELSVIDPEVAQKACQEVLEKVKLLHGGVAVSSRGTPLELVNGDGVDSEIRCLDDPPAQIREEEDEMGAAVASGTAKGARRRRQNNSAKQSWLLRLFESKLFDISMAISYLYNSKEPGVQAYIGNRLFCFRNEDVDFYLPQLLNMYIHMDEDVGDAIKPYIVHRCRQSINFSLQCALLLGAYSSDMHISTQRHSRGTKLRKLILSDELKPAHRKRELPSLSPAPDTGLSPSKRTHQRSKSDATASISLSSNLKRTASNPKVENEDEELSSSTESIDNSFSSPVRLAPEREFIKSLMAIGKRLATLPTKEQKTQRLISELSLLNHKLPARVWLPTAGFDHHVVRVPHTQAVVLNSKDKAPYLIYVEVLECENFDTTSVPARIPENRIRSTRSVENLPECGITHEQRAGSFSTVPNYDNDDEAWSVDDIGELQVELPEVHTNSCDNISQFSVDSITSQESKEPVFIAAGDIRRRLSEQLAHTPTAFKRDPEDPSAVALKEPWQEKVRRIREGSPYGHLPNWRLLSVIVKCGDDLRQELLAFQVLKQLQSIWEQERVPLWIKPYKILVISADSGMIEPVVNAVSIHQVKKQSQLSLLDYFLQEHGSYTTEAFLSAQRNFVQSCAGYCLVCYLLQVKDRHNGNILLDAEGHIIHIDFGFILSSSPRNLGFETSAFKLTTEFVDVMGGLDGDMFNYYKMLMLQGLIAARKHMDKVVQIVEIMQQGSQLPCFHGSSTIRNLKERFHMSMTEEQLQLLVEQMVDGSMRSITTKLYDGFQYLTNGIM
T10 sequence (O75716 whole entry): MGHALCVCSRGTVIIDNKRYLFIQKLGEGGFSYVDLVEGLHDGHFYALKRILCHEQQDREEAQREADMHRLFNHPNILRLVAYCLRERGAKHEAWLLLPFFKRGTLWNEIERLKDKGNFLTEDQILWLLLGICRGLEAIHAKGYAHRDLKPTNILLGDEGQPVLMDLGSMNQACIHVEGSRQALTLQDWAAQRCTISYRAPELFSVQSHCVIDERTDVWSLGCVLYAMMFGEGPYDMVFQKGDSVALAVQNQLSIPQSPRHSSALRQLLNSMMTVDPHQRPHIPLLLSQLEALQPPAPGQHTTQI
T6 sequence (Q12866 21-999): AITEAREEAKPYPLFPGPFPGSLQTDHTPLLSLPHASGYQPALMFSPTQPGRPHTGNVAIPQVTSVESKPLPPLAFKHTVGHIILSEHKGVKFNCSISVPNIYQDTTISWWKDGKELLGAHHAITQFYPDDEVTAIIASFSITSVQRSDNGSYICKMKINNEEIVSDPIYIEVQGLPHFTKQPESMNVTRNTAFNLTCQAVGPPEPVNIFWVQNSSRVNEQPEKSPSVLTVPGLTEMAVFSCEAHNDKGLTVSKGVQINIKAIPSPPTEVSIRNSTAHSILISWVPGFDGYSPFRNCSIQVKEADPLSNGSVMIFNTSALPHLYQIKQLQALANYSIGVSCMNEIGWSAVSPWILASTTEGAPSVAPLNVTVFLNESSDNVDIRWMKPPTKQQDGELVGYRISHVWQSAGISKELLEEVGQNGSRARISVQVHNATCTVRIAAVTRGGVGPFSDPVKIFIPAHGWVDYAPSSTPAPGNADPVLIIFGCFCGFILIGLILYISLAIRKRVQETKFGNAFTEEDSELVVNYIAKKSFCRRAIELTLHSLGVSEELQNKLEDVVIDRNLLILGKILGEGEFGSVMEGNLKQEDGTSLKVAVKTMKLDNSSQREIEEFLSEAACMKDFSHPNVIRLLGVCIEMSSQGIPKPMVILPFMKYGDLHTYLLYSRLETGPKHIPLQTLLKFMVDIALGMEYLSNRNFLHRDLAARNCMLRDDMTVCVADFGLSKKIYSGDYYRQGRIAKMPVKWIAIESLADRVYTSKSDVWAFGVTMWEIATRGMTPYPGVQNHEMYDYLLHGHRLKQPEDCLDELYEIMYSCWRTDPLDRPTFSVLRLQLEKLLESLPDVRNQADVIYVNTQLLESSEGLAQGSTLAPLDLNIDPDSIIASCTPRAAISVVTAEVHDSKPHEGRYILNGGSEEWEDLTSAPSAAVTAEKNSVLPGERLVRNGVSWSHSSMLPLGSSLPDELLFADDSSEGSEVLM
T11 sequence (P10721 26-976 L576P): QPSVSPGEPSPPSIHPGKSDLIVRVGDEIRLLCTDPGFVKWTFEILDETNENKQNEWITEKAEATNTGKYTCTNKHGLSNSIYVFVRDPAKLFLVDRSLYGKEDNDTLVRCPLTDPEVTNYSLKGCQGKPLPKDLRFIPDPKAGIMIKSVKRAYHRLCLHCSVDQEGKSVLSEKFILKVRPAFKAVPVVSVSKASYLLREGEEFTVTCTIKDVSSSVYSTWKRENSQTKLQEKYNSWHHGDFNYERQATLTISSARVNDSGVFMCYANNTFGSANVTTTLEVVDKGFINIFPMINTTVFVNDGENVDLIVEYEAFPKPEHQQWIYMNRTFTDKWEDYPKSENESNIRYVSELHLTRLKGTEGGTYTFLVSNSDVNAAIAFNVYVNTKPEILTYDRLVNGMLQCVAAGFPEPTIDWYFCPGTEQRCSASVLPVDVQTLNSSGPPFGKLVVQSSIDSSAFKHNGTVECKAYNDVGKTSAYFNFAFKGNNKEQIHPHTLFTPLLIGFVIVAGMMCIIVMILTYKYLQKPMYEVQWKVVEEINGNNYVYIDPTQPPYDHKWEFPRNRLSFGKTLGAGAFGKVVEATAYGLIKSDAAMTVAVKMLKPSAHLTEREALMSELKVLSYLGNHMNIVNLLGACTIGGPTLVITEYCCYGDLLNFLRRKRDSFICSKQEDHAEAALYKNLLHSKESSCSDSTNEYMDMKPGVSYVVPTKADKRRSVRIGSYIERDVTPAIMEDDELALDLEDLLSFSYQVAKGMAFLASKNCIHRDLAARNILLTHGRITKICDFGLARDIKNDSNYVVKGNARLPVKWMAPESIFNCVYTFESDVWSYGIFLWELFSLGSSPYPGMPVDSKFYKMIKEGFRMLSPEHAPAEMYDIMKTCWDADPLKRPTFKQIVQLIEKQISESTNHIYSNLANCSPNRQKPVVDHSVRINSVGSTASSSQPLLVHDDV
T21 sequence (P45983 whole entry): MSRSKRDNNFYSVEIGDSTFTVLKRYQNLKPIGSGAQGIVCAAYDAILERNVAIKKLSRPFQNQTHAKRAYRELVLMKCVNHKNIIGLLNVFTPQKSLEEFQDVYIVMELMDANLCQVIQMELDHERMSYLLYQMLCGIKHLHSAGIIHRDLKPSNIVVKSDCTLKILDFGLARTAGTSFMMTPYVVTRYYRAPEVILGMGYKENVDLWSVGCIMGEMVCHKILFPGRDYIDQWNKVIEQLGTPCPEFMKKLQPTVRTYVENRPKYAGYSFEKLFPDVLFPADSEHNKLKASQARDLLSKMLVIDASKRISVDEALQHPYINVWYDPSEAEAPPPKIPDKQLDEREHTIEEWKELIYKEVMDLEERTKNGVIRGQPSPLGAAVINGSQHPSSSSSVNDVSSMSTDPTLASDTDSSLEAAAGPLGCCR
T5 sequence (P23458 583-855 limits assumed): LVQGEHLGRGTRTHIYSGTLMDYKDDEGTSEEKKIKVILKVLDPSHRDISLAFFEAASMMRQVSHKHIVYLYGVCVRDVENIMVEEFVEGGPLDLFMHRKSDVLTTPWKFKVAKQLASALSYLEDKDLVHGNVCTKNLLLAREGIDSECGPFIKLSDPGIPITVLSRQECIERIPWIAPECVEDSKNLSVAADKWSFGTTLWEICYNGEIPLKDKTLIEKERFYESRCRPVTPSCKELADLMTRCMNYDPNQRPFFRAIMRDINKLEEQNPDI
T30 sequence (O60674 849-1124 limits assumed): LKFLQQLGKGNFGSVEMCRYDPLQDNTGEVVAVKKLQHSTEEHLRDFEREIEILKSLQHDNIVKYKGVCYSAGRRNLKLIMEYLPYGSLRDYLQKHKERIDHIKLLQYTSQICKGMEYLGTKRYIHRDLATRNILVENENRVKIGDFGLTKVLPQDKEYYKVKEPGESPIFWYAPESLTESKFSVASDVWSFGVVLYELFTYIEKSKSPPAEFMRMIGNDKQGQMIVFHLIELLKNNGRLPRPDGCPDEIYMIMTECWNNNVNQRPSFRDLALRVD
T23 sequence (Q8TBX8 whole entry): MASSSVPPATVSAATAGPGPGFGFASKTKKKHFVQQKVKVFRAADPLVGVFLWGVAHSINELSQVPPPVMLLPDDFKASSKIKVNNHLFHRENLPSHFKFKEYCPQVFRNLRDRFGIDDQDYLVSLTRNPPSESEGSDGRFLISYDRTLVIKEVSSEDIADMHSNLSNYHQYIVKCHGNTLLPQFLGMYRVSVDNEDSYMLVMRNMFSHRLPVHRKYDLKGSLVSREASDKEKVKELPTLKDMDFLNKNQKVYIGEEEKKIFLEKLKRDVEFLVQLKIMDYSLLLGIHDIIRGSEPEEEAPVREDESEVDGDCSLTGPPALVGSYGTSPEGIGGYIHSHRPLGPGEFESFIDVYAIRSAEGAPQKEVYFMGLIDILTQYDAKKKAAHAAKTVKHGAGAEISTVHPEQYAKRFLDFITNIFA

CN1CCN(c2ccc(Nc3nc(N4OCC[C@H]4c4ccccc4)c4cc[nH]c4n3)cc2)CC1 [Example 74, (S)-N-(4-(4-methylpiperazin-1-yl)phenyl)-4-(3-phenylisoxazolidin-2-yl)-7H-pyrrolo[2,3-d]pyrimidin-2-amine]
remaining binding at 1 µM (MUSK): 0.4%
remaining binding at 1 µM (MARK3): 5.3%
remaining binding at 1 µM (RET): 20%
remaining binding at 1 µM (SRPK3): 13%
remaining binding at 1 µM [1]: 1.2%
remaining binding at 1 µM (MERTK): 29%
remaining binding at 1 µM (GRK4): 9.3%
remaining binding at 1 µM (ARK5): 8.9%
remaining binding at 1 µM (FLT3(N841I)): 0.3%
remaining binding at 1 µM (STK16): 26%
remaining binding at 1 µM (KIT(L576P)): 31%
remaining binding at 1 µM (PIK4CB): 16%
remaining binding at 1 µM (MAP4K3): 13%
remaining binding at 1 µM (FGR): 17%
remaining binding at 1 µM (MET(M1250T)): 11%
remaining binding at 1 µM (TRKC): 21%
remaining binding at 1 µM (EGFR(L861Q)): 30%
remaining binding at 1 µM (CLK4): 6.4%
remaining binding at 1 µM (EGFR): 28%
remaining binding at 1 µM (MARK4): 18%
remaining binding at 1 µM (JNK1): 2.7%
remaining binding at 1 µM (FLT3(D835Y)): 0.15%
remaining binding at 1 µM (PIP5K2C): 26%
remaining binding at 1 µM (DCAMKL3): 15%
remaining binding at 1 µM (FLT3): 3.9%
remaining binding at 1 µM (MEK1): 16%
remaining binding at 1 µM (RIOK3): 3.6%
remaining binding at 1 µM (NEK10): 0%
remaining binding at 1 µM (CIT): 0.3%
remaining binding at 1 µM [2]: 0%
remaining binding at 1 µM (FLT3(D835H)): 21%
remaining binding at 1 µM (MELK): 2%
remaining binding at 1 µM (SLK): 0.25%
remaining binding at 1 µM (SRPK1): 14%
remaining binding at 1 µM (EGFR(L858R)): 20%
